Source: PMC12298827, “Subchronic Toxicities of Four Per- and Polyfluoroalkyl Substances (PFASs) by Oral Exposure in Sprague–Dawley Rats” (Toxics, 2025)

Test system: male and female Sprague–Dawley rats
Test: 90-day subchronic oral gavage toxicity study
Assay type: in vivo, rat
Design: key to NOEL, absolute liver weight increase / LOEL, absolute liver weight increase / NOEL, relative kidney weight increase / LOEL, relative kidney weight increase / NOEL, absolute kidney weight increase / LOEL, absolute kidney weight increase / NOEL, relative liver weight increase / LOEL, relative liver weight increase: NR: no response, no statistically significant dose-dependent changes
Outline: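 Ten rats per sex per group got corn-oil gavage (3 mL/kg) at five doses or vehicle for 90 days, necropsy on SD 91. Assessed weekly weights and food intake, neurobehavior (FOB, locomotor), eyes, terminal blood panels with plasma PFAS, organ weights and H&E histology; Dunnett's test against control, two-sided 0.05.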

O=C(O)C(F)(Cl)C(F)(F)F (centres unmarked) [CTFPA, 2-Chloro-2,3,3,3-tetrafluoropropanoic acid]
Liver Weight (female, 100 mg/kg-day): 11.31 g
Liver/Body Weight (female, 100 mg/kg-day): 3.57%
Liver/Brain Weight (female, 100 mg/kg-day): 575%
MPV (female, 100 mg/kg-day): 8.01 ± 0.50 fL
PT (female, 100 mg/kg-day): 14.22 s
Total BW change (female, 100 mg/kg-day): 107.34 g
Total Food Consumed (female, 100 mg/kg-day): 1615 g
BMDL, absolute liver weight increase (male): 11.6 mg/kg-day
LOEL, absolute kidney weight increase (male): NR
LOEL, absolute liver weight increase (male): 7.5 mg/kg-day
LOEL, relative kidney weight increase (male): NR
LOEL, relative liver weight increase (male): 3.8 mg/kg-day
NOEL, absolute kidney weight increase (male): NR
NOEL, absolute liver weight increase (male): 3.8 mg/kg-day
NOEL, relative kidney weight increase (male): NR
NOEL, relative liver weight increase (male): 1.9 mg/kg-day
% BW Gain (male, 1.9 mg/kg-day): 125.06%
% Diff, % BW Gain (male, 1.9 mg/kg-day): -0.26%
% Diff, Total BW change (male, 1.9 mg/kg-day): -0.03%
% Diff, Total Food Consumed (male, 1.9 mg/kg-day): 0.81%
A/G (male, 1.9 mg/kg-day): 0.95±0.07 ratio
ALB (male, 1.9 mg/kg-day): 3.35 ± 0.17 g/dL
ALPi (male, 1.9 mg/kg-day): 139.8±40.4 U/L
APTT (male, 1.9 mg/kg-day): 18.83 s
BUN (male, 1.9 mg/kg-day): 14.8 ± 1.8 mg/dL
CHOL (male, 1.9 mg/kg-day): 84.4 ± 9.8 mg/dL
GLOB (male, 1.9 mg/kg-day): 3.52 ± 0.20 g/dL
GLUC (male, 1.9 mg/kg-day): 170.1 ± 32.6 mg/dL
HCT (male, 1.9 mg/kg-day): 50.28±1.93%
HGB (male, 1.9 mg/kg-day): 15.58 ± 0.65 g/dL
Kidney Weight (male, 1.9 mg/kg-day): 3.12 g
Kidney/Body Weight (male, 1.9 mg/kg-day): 0.56%
Kidney/Brain Weight (male, 1.9 mg/kg-day): 150%
Liver Weight (male, 1.9 mg/kg-day): 14.47 g
Liver/Body Weight (male, 1.9 mg/kg-day): 2.58%
Liver/Brain Weight (male, 1.9 mg/kg-day): 697%
MPV (male, 1.9 mg/kg-day): 7.50 ± 0.37 fL
PT (male, 1.9 mg/kg-day): 15.55 s
Total BW change (male, 1.9 mg/kg-day): 316.63 g
Total Food Consumed (male, 1.9 mg/kg-day): 2084 g
% BW Gain (male, 3.8 mg/kg-day): 137.76%
% Diff, % BW Gain (male, 3.8 mg/kg-day): 9.87%
% Diff, Total BW change (male, 3.8 mg/kg-day): 11.95%
% Diff, Total Food Consumed (male, 3.8 mg/kg-day): 9.08%
A/G (male, 3.8 mg/kg-day): 0.93±0.20 ratio
ALB (male, 3.8 mg/kg-day): 3.29 ± 0.48 g/dL
ALPi (male, 3.8 mg/kg-day): 131.8±40.1 U/L
APTT (male, 3.8 mg/kg-day): 16.21 s
BUN (male, 3.8 mg/kg-day): 15.6 ± 2.5 mg/dL
CHOL (male, 3.8 mg/kg-day): 79.3 ± 17.3 mg/dL
GLOB (male, 3.8 mg/kg-day): 3.65 ± 0.66 g/dL
GLUC (male, 3.8 mg/kg-day): 173.7 ± 32.5 mg/dL
HCT (male, 3.8 mg/kg-day): 49.12±2.10%
HGB (male, 3.8 mg/kg-day): 15.20 ± 0.71 g/dL
Kidney Weight (male, 3.8 mg/kg-day): 3.35 g
Kidney/Body Weight (male, 3.8 mg/kg-day): 0.56%
Kidney/Brain Weight (male, 3.8 mg/kg-day): 152%
Liver Weight (male, 3.8 mg/kg-day): 17.18 g
Liver/Body Weight (male, 3.8 mg/kg-day): 2.85%
Liver/Brain Weight (male, 3.8 mg/kg-day): 780%
MPV (male, 3.8 mg/kg-day): 7.79 ± 0.46 fL
PT (male, 3.8 mg/kg-day): 15.25 s
Total BW change (male, 3.8 mg/kg-day): 354.57 g
Total Food Consumed (male, 3.8 mg/kg-day): 2255 g
% BW Gain (male, 7.5 mg/kg-day): 145.16%
% Diff, % BW Gain (male, 7.5 mg/kg-day): 15.76%
% Diff, Total BW change (male, 7.5 mg/kg-day): 18.72%
% Diff, Total Food Consumed (male, 7.5 mg/kg-day): 13.5%
A/G (male, 7.5 mg/kg-day): 1.05±0.14 ratio
ALB (male, 7.5 mg/kg-day): 3.39 ± 0.32 g/dL
ALPi (male, 7.5 mg/kg-day): 159.9±63.1 U/L
APTT (male, 7.5 mg/kg-day): 14.52 s
BUN (male, 7.5 mg/kg-day): 15.5 ± 2.2 mg/dL
CHOL (male, 7.5 mg/kg-day): 74.2 ± 8.5 mg/dL
GLOB (male, 7.5 mg/kg-day): 3.24 ± 0.19 g/dL
GLUC (male, 7.5 mg/kg-day): 165.6 ± 25.1 mg/dL
HCT (male, 7.5 mg/kg-day): 47.49±2.30%
HGB (male, 7.5 mg/kg-day): 14.52 ± 0.72 g/dL
Kidney Weight (male, 7.5 mg/kg-day): 3.47 g
Kidney/Body Weight (male, 7.5 mg/kg-day): 0.56%
Kidney/Brain Weight (male, 7.5 mg/kg-day): 159%
Liver Weight (male, 7.5 mg/kg-day): 20.01 g
Liver/Body Weight (male, 7.5 mg/kg-day): 3.24%
Liver/Brain Weight (male, 7.5 mg/kg-day): 912%
MPV (male, 7.5 mg/kg-day): 7.61 ± 0.38 fL
PT (male, 7.5 mg/kg-day): 15.14 s
Total BW change (male, 7.5 mg/kg-day): 376.00 g
Total Food Consumed (male, 7.5 mg/kg-day): 2345 g
% BW Gain (male, 15 mg/kg-day): 135.14%
% Diff, % BW Gain (male, 15 mg/kg-day): 7.78%
% Diff, Total BW change (male, 15 mg/kg-day): 8.09%
% Diff, Total Food Consumed (male, 15 mg/kg-day): 14.6%
A/G (male, 15 mg/kg-day): 1.16±0.11 ratio
ALB (male, 15 mg/kg-day): 3.56 ± 0.21 g/dL
ALPi (male, 15 mg/kg-day): 237.6±66.2 U/L
APTT (male, 15 mg/kg-day): 12.89 s
BUN (male, 15 mg/kg-day): 15.8 ± 2.4 mg/dL
CHOL (male, 15 mg/kg-day): 63.6 ± 10.8 mg/dL
GLOB (male, 15 mg/kg-day): 3.07 ± 0.19 g/dL
GLUC (male, 15 mg/kg-day): 175.2 ± 15.8 mg/dL
HCT (male, 15 mg/kg-day): 47.72±2.58%
HGB (male, 15 mg/kg-day): 14.62 ± 0.84 g/dL
Kidney Weight (male, 15 mg/kg-day): 3.40 g
Kidney/Body Weight (male, 15 mg/kg-day): 0.58%
Kidney/Brain Weight (male, 15 mg/kg-day): 147%
Liver Weight (male, 15 mg/kg-day): 20.28 g
Liver/Body Weight (male, 15 mg/kg-day): 3.47%
Liver/Brain Weight (male, 15 mg/kg-day): 873%
MPV (male, 15 mg/kg-day): 7.56 ± 0.43 fL
PT (male, 15 mg/kg-day): 15.24 s
Total BW change (male, 15 mg/kg-day): 342.33 g
Total Food Consumed (male, 15 mg/kg-day): 2368 g
% BW Gain (male, 30 mg/kg-day): 121.40%
% Diff, % BW Gain (male, 30 mg/kg-day): -3.18%
% Diff, Total BW change (male, 30 mg/kg-day): -0.72%
% Diff, Total Food Consumed (male, 30 mg/kg-day): 10.33%
A/G (male, 30 mg/kg-day): 1.19±0.12 ratio
ALB (male, 30 mg/kg-day): 3.72 ± 0.22 g/dL
ALPi (male, 30 mg/kg-day): 282.9±80.3 U/L
APTT (male, 30 mg/kg-day): 12.13 s
Absolute and relative thymus weights (male, 30 mg/kg-day): significantly increased
BUN (male, 30 mg/kg-day): 18.7 ± 2.7 mg/dL
CHOL (male, 30 mg/kg-day): 68.5 ± 10.0 mg/dL
GLOB (male, 30 mg/kg-day): 3.14 ± 0.22 g/dL
GLUC (male, 30 mg/kg-day): 175.3 ± 23.2 mg/dL
HCT (male, 30 mg/kg-day): 47.32±2.15%
HGB (male, 30 mg/kg-day): 14.44 ± 0.69 g/dL
Kidney Weight (male, 30 mg/kg-day): 3.35 g
Kidney/Body Weight (male, 30 mg/kg-day): 0.60%
Kidney/Brain Weight (male, 30 mg/kg-day): 148%
Liver Weight (male, 30 mg/kg-day): 21.52 g
Liver/Body Weight (male, 30 mg/kg-day): 3.82%
Liver/Brain Weight (male, 30 mg/kg-day): 954%
MPV (male, 30 mg/kg-day): 7.54 ± 0.47 fL
PT (male, 30 mg/kg-day): 15.74 s
Total BW change (male, 30 mg/kg-day): 314.42 g
Total Food Consumed (male, 30 mg/kg-day): 2281 g
